Experimental data taken from US9814731B2, “Method for the induction of phase 2 related genes in a mammal comprising administering exemestane” (THE JOHNS HOPKINS UNIVERSITY, priority 2013, dated 2017).
Each block holds one compound with its values, some of them ahead of it.

Legend:
NQO1 [1] = assay: NQO1 assay in murine hepatoma Hepa1c1c7 cells; format: cell-based; details: for CD value (concentration required to double the specific activity of NQO1): 48 hours exposure; for inducer activity for NQO1: concentrations up to 20 μM
Description: (§1) Cells (10,000 per well) were grown in 96-well plates for 24 hours, then exposed to serial dilutions of inducers for 48 hours, and lysed in 0.08% digitonin. Enzymatic activity of NQ01 in cell lysates was determined with menadione as a substrate (Anal Biochem 169: 328-336 (1988), Methods Enzymol 382(B): 243-258 (2004)). The concentrations required to double the specific activity of NQO1 (CD values) were used to quantify inducer potency.

NQO1 [2] = assay: NQO1 assay in murine 308 keratinocytes; format: cell-based; details: 308 cells, 48 hours exposure
Description: as §1

NQO1 [3] = assay: NQO1 assay in human retinal pigment epithelial ARPE-19 cells; format: cell-based; details: 48 hours exposure
Description: as §1

NQO1 [4] = assay: NQO1 assay in rat H9c2 myocardiocytes; format: cell-based; details: H9c2 cells, 48 hours exposure
Description: as §1

[5] = tested on: Hepa1c1c7, ARPE-19, 308 and H9c2 cells; assay: Cytotoxicity in all cell lines of the NQO1 assay (Hepa1c1c7, ARPE-19, 308, H9c2); format: cell-based; details: up to 20 μM, the highest concentration tested
heme oxygenase-1 (HO-1) = assay: Real-time PCR of HO-1 mRNA in H9c2 cells; format: cell-based, rat; details: 10 μM, 6 hours
Description: (§2) Total mRNA from cells was extracted with TRIzol reagent (Invitrogen, Carlsbad, Calif.). […] was synthesized by the iScript cDNA Synthesis Kit (Bio-Rad Laboratories, Inc., Hercules, Calif.). Quantitative real-time PCR analysis was performed using the 7000 Sequence Detection System (Applied Biosystems, Foster City, Calif.). All primers were optimized and a final primer concentration of 300 nM was used for all reactions. Primer sequences for gene amplification were as follows: NAD(P)H: quinone oxidoreductase 1 (NQO1): fwd 5′-[…]-3′ (SEQ ID NO: 1), rev 5′-[…]-3′ (SEQ ID NO: 2); heme oxygenase-1 (HO-1): fwd 5′-[…]-3′ (SEQ ID NO: 3), rev 5′-[…]-3′ (SEQ ID NO: 4). (3-actin (endogenous control): fwd 5′-[…]-3′ (SEQ ID NO: 5), rev 5′-catcllllcacggttggcctta-3′ (SEQ ID NO: 6). The reactions were assembled using 5 ng of cDNA, 1× Power SYBR Green PCR Master Mix (Life Technologies), forward and reverse primers, and nuclease-free water. Relative mRNA expression was normalized to β-actin. Gene expression was calculated using the comparative 2^−ΔΔCT method.

NQO1 [6] = assay: Real-time PCR of NQO1 mRNA in H9c2 cells; format: cell-based, rat; details: 10 μM, 6 hours
Description: as §2

NQO1 [7] = assay: NQO1 induction in mouse skin by topical application; format: in vivo, SKH-1 hairless mice; details: three applications at 24-hour intervals
Description: Eleven-month-old female SKH-1 hairless mice (n=5) purchased from Charles River Laboratories were treated three times at 24-hour intervals on the backs with 0, 1 and 2 μmol of exemestane dissolved in 80% aqueous acetone (40 μL) over about a 2.0 cm^2 area. Mice were euthanized 24 hours after the final dose. Each treated segment of the dorsal skin was harvested, pulverized in liquid N2, and homogenized in 10 volumes of 0.25 M sucrose in 10 mM Tris buffer (pH 7.4). After three freeze-thaw cycles, the homogenates were centrifuged at 14,000 rpm and 4° C. for 30 minutes, and the supernatant fractions were analyzed for protein concentration and NQO1 activity. All animal experiments were in compliance with National Institutes of Health Guidelines and were approved by The Johns Hopkins University Animal Care and Use Committee.

ARPE-19 cells [8] = assay: Intracellular ROS in ARPE-19 cells challenged with tert-butyl hydroperoxide; format: cell-based, human; details: ARPE-19, 24 hours pretreatment, 500 μM tert-butyl hydroperoxide
Description: (§3) ARPE-19 or MEF cells (10,000 per well) in 96-well plates (black-walled wells with clear bottom) were treated with serial dilutions of exemestane for 24 hours, and then incubated with 20 μM H2DCFDA for 30 minutes (Chem Res Toxicol 5: 227-231(1992)). After washing with Dulbecco's phosphate-buffered saline (DPBS) twice, the cells were challenged with 500 μM tert-butyl hydroperoxide for 30 minutes, and fluorescence intensity was measured in SpectraMax GeminiEM plate reader (Molecular Devices) with excitation at 485 nm and emission at 530 nm. Murine 308 keratinocytes (40,000 per well) were plated in 24-well plates and grown for 24 hours. Medium was then replaced with medium containing different concentrations of exemestane (0, 2, 4, 8 μM). After further incubation for 24 hours, cells were incubated with 20 μM H2DCFDA for 30 minutes, washed twice with DPBS twice and exposed to 5 or 10 J/cm^2 UVA (340-400 nm). Immediately after UVA irradiation, fluorescence intensity was measured by a microplate reader.

ARPE-19 cells [9] = assay: Cytotoxicity of oxidative stresses in ARPE-19 cells (MTT); format: cell-based, human; details: ARPE-19, 24 hours pretreatment 0-20 μM
Description: (§4) ARPE-19 cells (10,000 cells/well) in 96-well plates were treated with serial dilutions of exemestane for 24 hours, and exposed to tert-butyl hydroperoxide or 4-hydroxynonenal in serum-free medium for 4 hours. The cells were then incubated in serum-free medium for additional 20 hours, washed with DPBS, and cell viability was determined using the colorimetric procedure based on the reduction of a water-soluble tetrazolium salt, 3-(4,5-dimethylthiazo-2-yl)-2,5-diphenyltetrazolium bromide (MTT). H9c2 cells (10,000 cells/well) in 96-well plates were treated with a range of concentrations of exemestane. After 24 hours, the cells were washed with DPBS, and exposed to 2 mM Na2S2O4 in serum-free medium for 1 hour. The cells were then washed with DPBS and incubated in complete medium containing 10% FBS for 24 hours, and then cell viability was measured by the MTT assay.

308 keratinocytes = assay: UVA-stimulated ROS production in murine 308 keratinocytes; format: cell-based; details: 24 hours pretreatment, 5 or 10 J/cm^2 UVA
Description: as §3

H9c2 cells = assay: Hypoxia/reoxygenation injury in H9c2 cardiomyocytes (MTT); format: cell-based, rat; details: H9c2, 24 hours pretreatment, 10 μM
Description: as §4

NQO1 [10] = assay: NQO1 assay in wild-type MEF; format: cell-based, mouse; details: 48 hours
Description: as §1

NQO1 [11] = assay: NQO1 assay in Nrf2-knockout MEF; format: cell-based, mouse; details: 48 hours
Description: as §1

WT MEF cells = assay: ROS in wild-type MEF challenged with tert-butyl hydroperoxide; format: cell-based, mouse; details: 24 hours pretreatment
Description: as §3

Nrf2-/- MEF cells = assay: ROS in Nrf2-/- MEF challenged with tert-butyl hydroperoxide; format: cell-based, mouse; details: 24 hours pretreatment
Description: as §3

iNOS [12] = assay: LPS-activated iNOS (NO production, Griess reaction) in RAW264.7 cells; format: cell-based, murine; details: for IC50: Mus musculus, RAW264.7, 10 ng/ml LPS, 48 h, read-out: IC50 of NO generation; for inhibition of LPS-stimulated NO production: RAW264.7, up to 20 μM
Description: RAW264.7 cells (20,000 per well) in 96-well plates, were grown for 24 hours, and exposed to serial dilutions of exemestane in the presence of 10 ng/ml LPS. […] The nitrite values of cells treated with LPS but without test compounds were used as controls.

RAW264.7 cells = assay: Cytotoxicity in RAW264.7 cells; format: cell-based, murine; details: RAW264.7, 20 μM
iNOS [13] = assay: LPS-activated iNOS (NO production) in wild-type mouse peritoneal macrophages; format: cell-based; details: Peritoneal macrophage, single agent, 100 ng/ml LPS, 24 hours, read-out: concentration required for 50% inhibition of LPS-stimulated nitric oxide generation
Description: (§5) Nrf2−/− mice on C57BL/6 background were initially established by Itoh et al. WT C57BL/6 mice were purchased from The Jackson Laboratory. Macrophages were harvested by lavage from the peritoneal cavity with DPBS 4 days after an i.p. injection of thioglycolate broth (Brewer, 4%). Isolated cells were plated into 96-well plates at a density of 10^5 cells per well in RPMI 1640 medium containing 2 mM Lglutamine, 10% heat-inactivated FBS, 100 U/ml […]. After 3 hours of incubation at 37° C. in 5% CO2. nonmacrophage cells were washed away with DPBS. The remaining macrophages were exposed immediately to serial dilutions of exemestane, sulforaphane or a combination of both compounds in the presence of 100 ng/ml LPS, and incubated for 24 hours before measurement of iNOS.
(§6) RAW264.7 cells (20,000 per well) in 96-well plates, were grown for 24 hours, and exposed to serial dilutions of exemestane in the presence of 10 ng/ml LPS. After 48-hour incubation, nitrite concentration in culture supernatant fractions of RAW264.7 cells or mouse peritoneal macrophages, measured as an indicator of iNOS induction, was determined by the Griess reaction (Cancer Res 58: 717-723 (1998), Proc Natl Acad Sci USA 105: 15926-15931 (2008)). The nitrite values of cells treated with LPS but without test compounds were used as controls.

iNOS [14] = assay: LPS-activated iNOS (NO production) in Nrf2-/- mouse peritoneal macrophages; format: cell-based; details: LPS 100 ng/ml, 24 hours
Description: as §5, §6

NF-κB = assay: LPS-induced NF-κB luciferase reporter in U937 3×κB-LUC cells; format: cell-based, human; details: LPS 10 ng/ml; for effect on LPS-activated NF-κB by itself: 6 hours, exemestane up to 30 μM; for effect on the inhibitory effect of sulforaphane on NF-κB activation: combined with sulforaphane
Description: Human monocytic U937-3×κB-LUC cells were transferred to medium with 2% heat-inactivated FBS in 24-well plates (1×10^6 cells/well) and incubated overnight. Then cells were incubated with exemestane, sulforaphane, combination of both compounds, or vehicle control for 30 minutes, and exposed to LPS (10 ng/ml). After an additional 6-hour incubation, cells were harvested and NF-κB-driven luciferase activity was assayed according to the manufacturer's instructions (Promega, Madison, Wis.). Luciferase activity was normalized to total protein concentration to compensate for possible cell toxicity of the compounds.

breast cancer = details: 4560 women at moderately increased risk for developing breast cancer; cited from earlier work
Hepa1c1c7 cells = assay: Cytotoxicity in Hepa1c1c7 cells; format: cell-based, murine; details: 20 μM

- IC50 (iNOS [12]): 2500 nM
- IC50 (iNOS [13]): 24200 nM
Compound: C=C1C[C@@H]2[C@H](CC[C@]3(C)C(=O)CC[C@@H]23)[C@@]2(C)C=CC(=O)C=C12 [Exemestane, 6-methyleneandrosta-1,4-diene-3,17-dione]
- CD value (concentration required to double the specific activity of NQO1) (NQO1 [1]): 0.65 µM
- CD value (concentration required to double the specific activity of NQO1) (NQO1 [2]): 0.65 µM
- CD value (concentration required to double the specific activity of NQO1) (NQO1 [3]): 2.2 µM
- CD value (concentration required to double the specific activity of NQO1) (NQO1 [4]): 2.9 µM
- cytotoxicity [5]: no cytotoxicity
- increase in mRNA levels of HO-1 over control cells (heme oxygenase-1 (HO-1)): greater than 8 fold
- increase in NQO1 mRNA expression over control cells (NQO1 [6]): 3 fold
- elevation of NQO1 activity in homogenates of skin (NQO1 [7]; 0.5 μmol/cm^2 per application): 1.3 fold
- elevation of NQO1 activity in homogenates of skin (NQO1 [7]; 1.0 μmol/cm^2 per application): 1.7 fold
- ROS production stimulated by tert-butyl hydroperoxide (ARPE-19 cells [8]): suppressed ROS production
- protection against cytotoxicity of tert-butyl hydroperoxide (ARPE-19 cells [9]; oxidant 0.2, 0.4, 0.8 mM for 4 hours): protected against cytotoxicity
- protection against cytotoxicity of 4-hydroxynonenal (ARPE-19 cells [9]; oxidant 10, 20, 40 μM for 4 hours): protected against cytotoxicity
- ROS in UVA-irradiated cells (308 keratinocytes): dose-dependently led to the reduction of ROS
- cell viability after hypoxia/reoxygenation (H9c2 cells): almost totally restored cell viability
- NQO1 activity (NQO1 [10]): dose-dependently induced NQO1 activity
- NQO1 activity (NQO1 [11]): not affected
- tert-butyl hydroperoxide-stimulated ROS levels (WT MEF cells): clearly suppressed
- protection against tert-butyl hydroperoxide-stimulated ROS (Nrf2-/- MEF cells): no protection
- toxicity (RAW264.7 cells): no toxicity
- inhibition of LPS-stimulated NO production in Nrf2-/- compared with WT macrophages (iNOS [14]): much less effective inhibitor
- effect on LPS-activated NF-κB by itself (NF-κB): no effect
- effect on the inhibitory effect of sulforaphane on NF-κB activation (NF-κB): dramatically enhanced
- reduction of the risk of breast cancer relative to placebo (breast cancer): 65%

Compound: CC/C(=C(\c1ccccc1)c1ccc(OCCN(C)C)cc1)c1ccccc1 [tamoxifen]
- inducer activity for NQO1 (NQO1 [1]): did not induce NQO1 activity
- cytotoxicity (Hepa1c1c7 cells): about 90%
- inhibition of LPS-stimulated NO production (iNOS [12]): did not inhibit
- cytotoxicity (RAW264.7 cells): 50%

Compound: N#Cc1ccc(C(c2ccc(C#N)cc2)n2cncn2)cc1 [letrozole]
- inducer activity for NQO1 (NQO1 [1]): no inducer activity
- inhibition of LPS-stimulated NO production (iNOS [12]): did not inhibit
- toxicity (RAW264.7 cells): no toxicity
- effect on LPS-activated NF-κB by itself (NF-κB): no effect
- effect on the inhibitory effect of sulforaphane on NF-κB activation (NF-κB): did not enhance

- IC50 (iNOS [12]): 500 nM
- IC50 (iNOS [13]): 1500 nM
Compound: C[S+]([O-])CCCCN=C=S (stereo not drawn) [sulforaphane, R,S-sulforaphane]
- CD value (concentration required to double the specific activity of NQO1) (NQO1 [1]): 0.2 µM
- CD value (concentration required to double the specific activity of NQO1) (NQO1 [2]): 0.2 µM
- CD value (concentration required to double the specific activity of NQO1) (NQO1 [3]): 0.7 µM
- CD value (concentration required to double the specific activity of NQO1) (NQO1 [4]): 0.9 µM
- NQO1 activity (NQO1 [10]): dose-dependently induced NQO1 activity
- NQO1 activity (NQO1 [11]): not affected
